These results are taken from publication PMC7441570 (Chemical biology & drug design, 2019).

Series [1] in a line: in vitro. The following applies: human, Caco-2.
Series [2] deals with HIV-1 RNase H. The following applies: read-out: HIV-1 RNase H IC50; in vitro; ref Budihas et al., 2005; cited from earlier work.
Series [3] deals with bacterial (Escherichia coli) RNase H. The following applies: read-out: bacterial (Escherichia coli) RNase H IC50; ref Budihas et al., 2005; cited from earlier work.
The target in series [4] is human RNase H. The following applies: read-out: human RNase H IC50; ref Budihas et al., 2005; cited from earlier work.

On to `COCCc1ccc(OCC(O)CNC(C)C)cc1` (stereo not shown) [metoprolol], for which, in series [1], the Papp (in general, the rate of passage across a membrane or cell layer, normalised by area and donor concentration) was determined as 16.3 ×10⁻⁶ cm/s; the recovery is > 93%.

As for `CC(C)(C)NCC(O)COc1cccc2c1CC(O)C(O)C2` (stereo not shown) [nadolol], in series [1], the Papp amounted to 0.11 ×10⁻⁶ cm/s and the recovery was > 93%.

Consider `CC(C)c1ccc(O)c(=O)c(O)c1` [β-thujaplicinol], for which the half-inhibitory concentration (IC50) (usually the midpoint of a concentration-inhibition curve) in series [2] is ~200 nM; in series [3], 50 µM; in series [4] it was 5.7 µM.
